Experimental data reported in paper PMC7674269 (Biochemistry, 2020).

T1: sortilin (Homo sapiens, UniProt Q99523)
T1 sequence (Q99523 78-755): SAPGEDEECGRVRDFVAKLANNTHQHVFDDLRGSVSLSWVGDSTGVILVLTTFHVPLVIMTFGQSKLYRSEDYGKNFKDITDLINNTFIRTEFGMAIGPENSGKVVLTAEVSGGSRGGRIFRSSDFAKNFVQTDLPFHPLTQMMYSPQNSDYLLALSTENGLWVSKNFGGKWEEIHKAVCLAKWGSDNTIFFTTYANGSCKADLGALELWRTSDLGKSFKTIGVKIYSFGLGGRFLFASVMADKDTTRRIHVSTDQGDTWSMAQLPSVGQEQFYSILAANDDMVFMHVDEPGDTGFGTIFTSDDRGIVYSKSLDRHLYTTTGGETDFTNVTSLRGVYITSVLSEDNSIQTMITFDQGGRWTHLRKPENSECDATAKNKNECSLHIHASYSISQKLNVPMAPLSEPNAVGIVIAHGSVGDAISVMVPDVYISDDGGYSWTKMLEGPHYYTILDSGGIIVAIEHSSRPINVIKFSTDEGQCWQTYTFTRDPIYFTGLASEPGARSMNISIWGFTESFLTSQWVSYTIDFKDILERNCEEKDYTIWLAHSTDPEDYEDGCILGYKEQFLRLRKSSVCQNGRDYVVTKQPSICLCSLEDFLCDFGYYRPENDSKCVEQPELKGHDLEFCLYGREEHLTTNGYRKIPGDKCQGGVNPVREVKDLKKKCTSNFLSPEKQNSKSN

T2: Neurotensin C-terminal fragment (Ct-NT) C-terminal 4 residues (Homo sapiens, UniProt P30990)
T2 chain: PYIL

B1: Sortilin luminal beta-propeller domain (protein)
chain: NNTHQHVFDDLRGSVSLSWVGDSTGVILVLTTFHVPLVIMTFGQSKLYRSEDYGKNFKDITDLINNTFIRTEFGMAIGPENSGKVVLTAEVSGGSRGGRIFRSSDFAKNFVQTDLPFHPLTQMMYSPQNSDYLLALSTENGLWVSKNFGGKWEEIHKAVCLAKWGSDNTIFFTTYANGSCKADLGALELWRTSDLGKSFKTIGVKIYSFGLGGRFLFASVMADKDTTRRIHVSTDQGDTWSMAQLPSVGQEQFYSILAANDDMVFMHVDEPGDTGFGTIFTSDDRGIVYSKSLDRHLYTTTGGETDFTNVTSLRGVYITSVLSEDNSIQTMITFDQGGRWTHLRKPENSECDATAKNKNECSLHIHASYSISQKLNVPMAPLSEPNAVGIVIAHGSVGDAISVMVPDVYISDDGGYSWTKMLEGPHYYTILDSGGIIVAIEHSSRPINVIKFSTDEGQCWQTYTFTRDPIYFTGLASEPGARSMNISIWGFTESFLTSQWVSYTIDF

Experiments:
sortilin = biological target: T1, sortilin; experiment: SPR, immobilised sortilin, CM5 chip; format: binding
[1] = biological target: T2, Neurotensin C-terminal fragment (Ct-NT) …; experiment: SPR competition with PIP3 nanodiscs
[2] = biological target: T2, Neurotensin C-terminal fragment (Ct-NT) …; experiment: SPR

Molecule	Kd (sortilin)	IC50 [1]	Kd [2]
CCCCCCCC(=O)OC[C@H](COP(=O)(O)O[C@H]1[C@H](O)[C@@H](OP(=O)(O)O)[C@H](OP(=O)(O)O)[C@@H](OP(=O)(O)O)[C@H]1O)OC(=O)CCCCCCC [diC8-PIP3]	4.2 ± 0.4 µM	–	–
C[C@@H](NC(=O)c1ccccc1NCC(=O)O)c1ccccc1 [cpd541]	6.9 ± 1.1 µM	–	–
CN1CCC[C@H]1C(=O)Nc1cccc(NC(=O)CCc2ccccc2)c1 [cpd984, (2S)-1-methylN-3-[(3-phenypropanoyl)-amino]phenylpyrrolidine-2-carboxamied]	0.118 ± 0.038 µM	–	–
B1	–	157 nM	~120 nM
